Active and inactive are the calls of the source. The calls are words filed in the database; no cut-off is given here.
How the values were obtained:
[1] = biological target: T1, C-type lectin domain family 4 member E (Homo sapiens) (UniProt Q9ULY5); experiment: Induction of human Mincle expressed in NFAT-GFP reporter cells assessed as induction of mincle-mediated NFAT signaling activity by measuring stimulation of GFP reporter activity at 0.001 to 0.1 nmol/well incubated for 18 hrs by flow cytometry; type: cell-based; details: filed as agonist, dose 0.001-0.1 nmol
T1 sequence (whole entry): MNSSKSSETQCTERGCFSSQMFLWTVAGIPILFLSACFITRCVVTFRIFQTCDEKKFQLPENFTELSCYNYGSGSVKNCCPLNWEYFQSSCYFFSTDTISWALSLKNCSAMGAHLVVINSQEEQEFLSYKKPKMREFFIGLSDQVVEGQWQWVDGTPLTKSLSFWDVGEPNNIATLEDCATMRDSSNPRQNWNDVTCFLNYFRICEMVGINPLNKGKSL

[2] = biological target: T2, C-type lectin domain family 4 member E (Mus musculus) (UniProt Q9R0Q8); experiment: Induction of mouse Mincle expressed in NFAT-GFP reporter cells assessed as induction of mincle-mediated NFAT signaling activity by measuring stimulation of GFP reporter activity at 0.001 to 0.1 nmol/well incubated for 18 hrs by flow cytometry; type: cell-based; details: filed as agonist, dose 0.001-0.1 nmol
T2 sequence (whole entry): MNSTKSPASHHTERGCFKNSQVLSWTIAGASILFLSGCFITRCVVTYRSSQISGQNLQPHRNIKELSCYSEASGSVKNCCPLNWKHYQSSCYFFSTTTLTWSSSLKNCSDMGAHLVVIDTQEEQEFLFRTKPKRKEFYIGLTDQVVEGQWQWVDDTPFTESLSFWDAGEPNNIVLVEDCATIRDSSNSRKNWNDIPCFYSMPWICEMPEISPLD

[3] = Solubility of the compound in 1 mM DMSO; type: physicochemical
[4] = biological target: T2, C-type lectin domain family 4 member E (Mus musculus); experiment: Induction of mouse Mincle expressed in NFAT-GFP reporter cells assessed as induction of mincle-mediated NFAT signaling activity by measuring stimulation of GFP reporter activity at 0.1 nmol/well incubated for 18 hrs by flow cytometry; type: cell-based; details: filed as agonist
[5] = biological target: T1, C-type lectin domain family 4 member E (Homo sapiens); experiment: Induction of human Mincle expressed in NFAT-GFP reporter cells assessed as induction of mincle-mediated NFAT signaling activity by measuring stimulation of GFP reporter activity at 0.1 nmol/well incubated for 18 hrs by flow cytometry; type: cell-based; details: filed as agonist
[6] = Solubility of the compound in 8 mM DMSO; type: physicochemical; details: 8000 µM

Row | Structure (SMILES) | Activity [1] | Activity [2] | solubility [3] | Activity [4] | Activity [5] | solubility [6]
1 | CCCCCCCC(O)CCCCCCCCCC(=O)OC[C@@H]1O[C@@H](O[C@H]2O[C@H](COC(=O)CCCCCCCCCC(O)CCCCCCC)[C@@H](O)[C@H](O)[C@H]2O)[C@@H](O)[C@H](O)[C@H]1O (some centres undefined) | Active | Active |  |  |  | 
2 | CCCCCCCCC(N)CCCCCCCCC(=O)OC[C@@H]1O[C@@H](O[C@H]2O[C@H](COC(=O)CCCCCCCCC(N)CCCCCCCC)[C@@H](O)[C@H](O)[C@H]2O)[C@@H](O)[C@H](O)[C@H]1O (some centres undefined) | Active | Active | Soluble |  |  | 
3 | CCCCCCCCC(=O)CCCCCCCCC(=O)OC[C@@H]1O[C@@H](O[C@H]2O[C@H](COC(=O)CCCCCCCCC(=O)CCCCCCCC)[C@@H](O)[C@H](O)[C@H]2O)[C@@H](O)[C@H](O)[C@H]1O | Active | Active |  |  |  | 
4 | CCCCCCCCCCCCC(=O)CCCCCCCCC(=O)OC[C@@H]1O[C@@H](O[C@H]2O[C@H](COC(=O)CCCCCCCCC(=O)CCCCCCCCCCCC)[C@@H](O)[C@H](O)[C@H]2O)[C@@H](O)[C@H](O)[C@H]1O | Active | Active |  |  |  | 
5 | CCCCCCCCCCCCC(N)CCCCCCCCC(=O)OC[C@@H]1O[C@@H](O[C@H]2O[C@H](COC(=O)CCCCCCCCC(N)CCCCCCCCCCCC)[C@@H](O)[C@H](O)[C@H]2O)[C@@H](O)[C@H](O)[C@H]1O (some centres undefined) | Active | Active |  |  |  | 
6 | CCCCCCCCCCCCCCCCCCCCCCCC(C(=O)OC[C@@H]1O[C@@H](O[C@H]2O[C@H](COC(=O)C(CCCCCCCCCCCCCCCCCCCCCCC)C(O)CCCCCCCCCCCCCCCCCC3CC3CCCCCCCCCCCCCCC3CC3CCCCCCCCCCCCCCCCCC)[C@@H](O)[C@H](O)[C@H]2O)[C@@H](O)[C@H](O)[C@H]1O)C(O)CCCCCCCCCCCCCCCCCC1CC1CCCCCCCCCCCCCCC1CC1CCCCCCCCCCCCCCCCCC (some centres undefined) |  |  |  | Active | Active | 
7 | CCCCCCC(=O)CCCCCCCCCCC(=O)OC[C@@H]1O[C@@H](O[C@H]2O[C@H](COC(=O)CCCCCCCCCCC(=O)CCCCCC)[C@@H](O)[C@H](O)[C@H]2O)[C@@H](O)[C@H](O)[C@H]1O | Active | Active |  |  |  | 
8 | CCCCCCCCC(O)CCCCCCCCC(=O)OC[C@@H]1O[C@@H](O[C@H]2O[C@H](COC(=O)CCCCCCCCC(O)CCCCCCCC)[C@@H](O)[C@H](O)[C@H]2O)[C@@H](O)[C@H](O)[C@H]1O (some centres undefined) |  |  |  | Active | Active | Soluble
9 | CCCCCCCCCCCCCCCCCC(=O)OC[C@@H]1O[C@@H](O[C@H]2O[C@H](COC(=O)CCCCCCCCCCCCCCCCC)[C@@H](O)[C@H](O)[C@H]2O)[C@@H](O)[C@H](O)[C@H]1O |  |  |  | Active | Active | 
10 | CCCCCCCCCCC(O)CCCCCCC(=O)OC[C@@H]1O[C@@H](O[C@H]2O[C@H](COC(=O)CCCCCCC(O)CCCCCCCCCC)[C@@H](O)[C@H](O)[C@H]2O)[C@@H](O)[C@H](O)[C@H]1O (some centres undefined) | Active | Active |  |  |  | 
11 | CCCCCCCCCCCCC(O)CCCCCCCCC(=O)OC[C@@H]1O[C@@H](O[C@H]2O[C@H](COC(=O)CCCCCCCCC(O)CCCCCCCCCCCC)[C@@H](O)[C@H](O)[C@H]2O)[C@@H](O)[C@H](O)[C@H]1O (some centres undefined) | Active | Active | Soluble |  |  | 
12 | CCCCCCC(N)CCCCCCCCCCC(=O)OC[C@@H]1O[C@@H](O[C@H]2O[C@H](COC(=O)CCCCCCCCCCC(N)CCCCCC)[C@@H](O)[C@H](O)[C@H]2O)[C@@H](O)[C@H](O)[C@H]1O (some centres undefined) | Active | Active |  |  |  | 
13 | CCCCCCC(O)CCCCCCCCCCC(=O)OC[C@@H]1O[C@@H](O[C@H]2O[C@H](COC(=O)CCCCCCCCCCC(O)CCCCCC)[C@@H](O)[C@H](O)[C@H]2O)[C@@H](O)[C@H](O)[C@H]1O (some centres undefined) | Active | Active |  |  |  | 

Reference: ChEMBL document CHEMBL5236582, “Trehalose diesters containing a polar functional group-modified lipid moiety: Synthesis and evaluation of Mincle-mediated signaling activity” (Bioorg Med Chem, 2022)
